Two compounds from patent US7129073B2, “Regulation of neuronal function through metabotropic glutamate receptor signaling pathways” (The Rockefeller University, priority 2001, dated 2006) can be followed below.

In assay [1] the test system is Thr75 of DARPP-32 (Cdk5 site). Nature of the assay: DARPP-32 phospho-Thr75 immunoblot in neostriatal slices. Type of assay: cell-based, mouse. As for the experimental part: Neostriatal slices were prepared from male C57/BL6 mice (6–8 weeks old) in accordance with methods known in the art (Nishi, A. et al. 1997, J. Neurosci. 17:8147–8155). Slices were treated with a drug. After drug treatment, slices were immediately frozen in liquid nitrogen, and stored at −80° C. until assayed.
Frozen slices were sonicated in hot homogenization buffer containing 1% SDS and 50 mM NaF, and samples were boiled for 10 minutes. SDS-PAGE sample buffer was then added and samples were boiled for 5 minutes. Samples (approximately 120 μg of total protein) were separated by SDS-PAGE (10% polyacrylamide) and then transferred to nitrocellulose. In most studies, immunoblots were first probed with anti-phospho-Ser137 DARPP-32 antibody. The blots were then stripped and probed with anti-phospho-Thr75 DARPP-32 antibody. Blots were stripped again and probed with anti-total DARPP-32 antibody. […] Chemiluminescence was detected by autoradiography and bands were quantified by analysis of scanned images using NIH IMAGE 1.52 software. Data were statistically analyzed by Student's t test in Microsoft EXCEL™ software as indicated.
Neostriatal slices were prepared from male C57/BL6 mice (6–8 weeks old) as disclosed (22). Slices were treated with drugs as specified in the text and figure legends. After drug treatment, slices were immediately frozen in liquid nitrogen, and stored at −80° C. until assayed.
Frozen slices were sonicated in hot homogenization buffer containing 1% SDS and 50 mM NaF, and samples were boiled for 10 min. SDS-PAGE sample buffer was then added and samples were boiled for 5 min. Samples (approximately 120 μg protein) were separated by SDS-PAGE (10% polyacrylamide) and transferred to nitrocellulose. Immunoblots were first probed with antiphospho-Ser-137 DARPP-32 antibody. The blots were stripped and probed with anti-phosphoThr-75 DARPP-32 antibody. Blots were stripped again and probed with anti-total DARPP-32 antibody. Antibody binding was detected by enhanced chemiluminescence (ECL) using X-ray film, and images were analyzed by laser scanning densitometry using NIH Image 1.52 software. Data were statistically analyzed by Student's t-test using Microsoft EXCEL™ software as indicated.

The test system of a further assay is HA-tagged CK1ε. Nature of the assay: kinase activity of HA-CK1ε immunoprecipitated from transfected N2a cells, DARPP-32 as substrate. It counts as cell-based. As for the experimental part: Neuroblastoma N2a cells were cultured in DMEM containing 5% fetal bovine serum (FBS) to 50–60% confluency. Four micrograms of the expression plasmid for HA-CK1ε were transfected into N2a cells in 100 mm dishes using FuGENE™ 6. Twenty-four hours after transfection, cells were incubated in phosphate-buffered Krebs-Henseleit solution (Sigma) for 10 minutes at room temperature. Cells were then incubated with or without CKI inhibitor for 30 minutes before treating with the group I mGluR agonist (S)-3,5-DHPG (100 μM) for 2 minutes. Cells were then lysed in one ml of lysis buffer containing 1% Nonidet P-40 (NP-40), 150 mM NaCl, 0.1% SDS, 50 mM Tris (pH 8.0), 5 mM Na3VO4, 20 mM NaF, 20 mM β-glycerol-phosphate and protease inhibitors. Lysates were centrifuged at 10,000 g and supernatants were used for immunoprecipitation and kinase assay.
For immunoprecipitation of CKI from N2a cells, lysates (1 mg of total protein) were pre-cleared with 5 μl of mouse IgG and 50 μl of protein A agarose for 30 minutes. Five μl of anti-HA antibody were added and samples were incubated for 1 hour at 4° C. Five μl of anti-mouse rabbit IgG and 50 μl of protein A agarose were then added for 45 minutes. Immuno-complexes were washed three times in lysis buffer, two times in kinase buffer (30 mM Hepes (pH 7.5), 7 mM MgCl2, 0.5 mM DTT). CKI assays were performed in a 30 μl assay volume with 2 μg of purified DARPP-32, 500 μM ATP and 5 μCi γ-^32P-ATP. Samples were incubated at 30° C. for 20 minutes, reactions were stopped by addition of SDS-sample buffer, and samples were boiled for 5 minutes. Samples were separated by SDS-PAGE (12% polyacrylamide). SDS-PAGE gels were dried and exposed to Kodak film for autoradiography. Bands were quantified by analysis using a Molecular Dynamics PhosphorImager.
Neuroblastoma N2a cells were cultured to 50–60% confluence in DMEM containing 5% fetal bovine serum. Four μg of the expression plasmid for HA-CK1ε or myc-MM2-CK1ε was transfected into N2a cells in 100 mm dishes using FuGENE6™. Twenty-four hours after transfection, cells were incubated at room temperature in phosphate-buffered Kreb's-Henseleit solution (Sigma) for 10 min and then with or without inhibitors for 30 min before treating with (S)-3,5-DHPG, for 2 min. Cells were then lysed in 1 ml of radio-immunoprecipitation (RIPA) buffer containing 1% NP-40, 150 mM NaCl, 0.1% SDS, 50 mM Tris, pH 8.0, 5 mM Na3VO4, 20 mM NaF, 20 mM β-glycerol-phosphate and protease inhibitors. Lysates were centrifuged at 10,000 g, and supernatants were used for immunoprecipitation and kinase assay.
For immunoprecipitation of CK1ε from N2a cells, lysates (1 mg of total protein) were precleared with 5 μl of mouse IgG (ICN) and 50 μl of protein A agarose for 30 min. Five μl (approximately 2 μg) of anti-HA or anti-myc antibody was added and samples were incubated for 1 h at 4° C. Five μl of anti-mouse rabbit IgG and 50 μl of protein A agarose were then added for 45 min. Immuno-complexes were washed 3 times in lysis buffer and 2 times in kinase buffer (30 mM Hepes, pH 7.5, 7 mM MgCl2, 0.5 mM DTT).
CK1 assays were performed in a 30 μl assay volume with 2 μg of purified DARPP-32, 500 μM ATP and 5 μCi γ-^32P-ATP. Reactions were started by addition of the ATP. Samples were incubated at 30° C. for 10 min and reactions were stopped by addition of SDS-sample buffer and boiled for 5 min. Samples were separated by SDS-PAGE (12% polyacrylamide). SDS-PAGE gels were dried and exposed to Kodak film for autoradiography. Results were quantified using a Molecular Dynamics PHOSPHORIMAGER™. Immunoprecipitation and assay of Cdk5 were performed as disclosed (20).

Regarding `N[C@H](C(=O)O)c1cc(O)cc(O)c1` [DHPG, (S)-3,5-Dihydroxyphenylglycine], the “increase in phosphorylation of Thr75” value in assay [1] (DHPG 100 μM, group I mGluR activation) was 2–3 fold. The “effect on phosphorylation of Thr75 in DARPP-32” value in assay [1] (slices treated with drug alone: DHPG 100 μM, ionomycin 2 μM) is given as “rapid but transient increase”. Also, in the assay on HA-tagged CK1ε (DHPG 100 μM for 2 min), the “effect on CK1ε activity” value is “increase”. The “increase in CKI activity compared to the basal level” value in the assay on HA-tagged CK1ε (DHPG 100 μM for 2 minutes) is listed as “approximately 2 fold”.
With `NCCNS(=O)(=O)c1ccc(Cl)c2ccncc12` [CKI-7], in assay [1] (50 μM CKI-7, 30 min before DHPG 2 min), the “effect on basal or DHPG-stimulated DARPP-32 phosphorylation at Thr75” value is on record as “little effect”. The “effect on basal and DHPG-stimulated DARPP-32 phosphorylation at Thr75” value in assay [1] (CKI-7 100 to 300 μM, 30 min before DHPG 2 min) is given as “dose-dependent decreases”. For the same compound, the “effect of pre-incubation on the ability of DHPG to increase CK1ε activity” value in the assay on HA-tagged CK1ε (30 min before DHPG 100 μM 2 min, CKI-7 100 μM, L-AP3 100 μM, U73122 10 μM, BAPTA/AM 20 μM, cyclosporin A 1 μM) is listed as “blocked”.
